The subject of experiment [1] is human dermal fibroblasts (HDFs). Description: Mitochondrial mass by Mitotracker Green staining. It is filed as cell-based. As to conditions: HDFs from aged donors; 30 μM, 7 h. How it is done:
The Seahorse XF Cell Mito Stress Test Kit (Agilent) was used to measure oxygen consumption rates in adult dermal fibroblasts. One day prior to the assay cells were seeded at either 4000 per well or 3000 per well. Where indicated, fibroblast plates were subjected to 20Gy IR 2 h before assay. […] HDFs were stained with 100 nM Mitotracker Green for mitochondrial density measurement. The Mito Stress Test was performed as per manufacturer's guidelines on a Seahorse XF96 Extracellular Flux analyser using previously optimized conditions. Following assay completion, cells were fixed in 4% PFA for 20 minutes. PFA was then removed, and cells were washed twice with PBS. Following fixation, cells were stained with Hoescht nucleic acid stain (Invitrogen) for 10 min before being washed twice in PBS. Fluorescence was subsequently measured using the PHERAstar FSX plate reader (BMG LABTECH) at 350/460 nm for normalization purposes. Following normalization, OCR measurements were interpreted from data generated from the Agilent Seahorse Wave software version 2.6.3.5. Basal respiration data in unstressed conditions is presented. OCR measurements were further normalised to mitochondrial density to obtain ATP production (pmol/min/mitochondria).

The test system of a further experiment is p62-dependent mitophagy. Description: Luciferase-p62 clearance assay, stated for HDFs. It is filed as cell-based, human. As to conditions: 10 μM; HDFs as printed. How it is done:
FIGS. 15A-15C show hydroxycinnamic acids (HCAs) tested in mitophagy assays in primary HDFs. […] 80,000 mixed aged Fibroblasts expressing the Su9-Halo-GFP reporter were treated for 48 h with the indicated HCAs. A change in the reporter excitation occurs because the GFP tag is quenched in the lysosome environment, indicating mitophagy.
To identify p62-dependent materials which increase mitophagy, a Luciferase-p62 Assay was established. This method provides an approach to measure the ability of a material to modulate p62-dependent mitophagy by using an inducible firefly luciferase-p62 (Fluc-p62) reporter cell system. In this assay, p62 levels are driven by doxycycline treatment. After levels increased, expression of Fluc-p62 is turned off by removal of doxycycline, materials are then added and assessed for how they affect clearance of Fluc-p62 protein, which is proportionate to cellular mitophagy rates (Kelly et al.). […]
Test materials including bioactive materials were screened in mouse embryonic fibroblasts (MEFs, Harada et al.) expressing the TET-inducible p62-fluc construct as previously described (Brown et al.). […] Subsequently, cells were treated with test materials for 48 hours in normal growth medium and analysed using ONE-Glo™+Tox Luciferase Reporter and Cell Viability Assay (Promega) by following the manufacturer's protocol.

In experiment [2] the test system is human dermal fibroblasts (HDFs). In words: Average nuclear size by immunofluorescence microscopy. The class given is cell-based. How it is done:
Immunofluorescence analyses were performed as described previously (Carroll et al.). In brief, cells were seeded on coverslips in 24-well plates and fixed in 4% formaldehyde in PBS for 10 min at room temperature followed by permeabilization in 0.5% Triton X-100 (Sigma-Aldrich) in PBS for 4 min at room temperature (Ki67 and p21) or in methanol for 4 min at −20° C. (LC3 and p62). Cells were then blocked for 1 h in 5% normal goat serum (Sigma-Aldrich) in PBS at room temperature and incubated with primary antibodies overnight at 4° C. Cells were washed three times and incubated with the appropriate secondary antibodies for 1 h at room temperature (Thermo Fisher Scientific, A31556 and A21235, 1:1000). Cells were washed, and coverslips were mounted on slides with Prolong Gold antifade mountant with DAPI (Invitrogen). Fluorescence images were obtained as described above. The following primary antibodies were used: rabbit anti-Ki67 (Abcam, ab 15580, 1:250), rabbit anti-p21 (CST, 2947, 1:1000), mouse anti-LC3 (NanoTools, 0260-100, 1:200) and rabbit anti-p62 (MBL, PM045, 1:500).

Experiment [3] concerns primary human dermal fibroblasts (HDFs). Description: Mitophagy assay, mt-mKeima reporter, fluorescence microscopy. It is filed as cell-based. The procedure:
Primary human dermal fibroblasts (HDFs) were cultured in DMEM supplemented with 10 percent FBS, 100 units per milliliter penicillin/streptomycin, and 2 millimolar L-glutamine in a humidified atmosphere containing 5 percent carbon dioxide at 37 degrees Celsius. Stable expression of mt-mKeima was achieved through retroviral transduction (Kelly et al.). Cells stably expressing mt-mKeima were seeded in a 35 mm glass bottom dish (MatTek). The live-cell mt-Keima signal was obtained via widefield microscopy using the DMi8 and 2 filtersets to obtain the acidic (561 nm excitation, “red”) and pH-neutral (480 nm, “green”) mKeima signals. Using FIJI/ImageJ, a macro was applied to the mt-mKeima signal to extract mitolysosomes. In detail, images were masked by applying MaxEntropy threshold to the images obtained with 561 nm excitation to remove low mt-mKeima red signal and background. Then, images were generated by subtracting the signal of green mKeima from that of red mKeima. Resulting images were binarised with the MaxEntropy threshold algorithm to extract mitolysosomes. Mitophagy events were determined as the number of puncta per cell. Cells stably expressing pSu9-Halo-GFP seeded in a 35 glass bottom dish (MatTek) were stained with 1 μM Halo TMR ligand (Promega, G8251) for 48 h. Fluorescence images were obtained using an LSM700 confocal microscope (Zeiss). The number of mitolysosomes (GFP-Halo+puncta) per cell was quantified using proprietary plugin in Fiji/ImageJ. Both mKeima and pSu9-Halo-GFP reporters directly visualize frequency of mitophagy events (e.g., mitochondria delivered by autophagolysosomes to lysosomes for degradation) (Kelly et al.).

The mark [4] stands for this setting: HDFs from aged donors, 30 μM, 7 h.

Experimental findings from patent publication US20250381110A1, “SKIN CARE COMPOSITION AND METHOD OF USING THE SAME” (THE PROCTER & GAMBLE COMPANY, priority 2024, published 2025) are described below.

Regarding `CC(=O)Oc1ccc(N2C(=O)C3C(Cc4ccccc4)NC4(C(=O)Nc5c4ccc(Cl)c5C)C3C2=O)cc1` (stereo not shown) [STOCKIN-57543], the mitochondrial mass result in experiment [1] is recorded as “restoring mitochondrial mass”. Moreover, the “increase p62-dependent mitophagy levels over baseline” value with p62-dependent mitophagy stood at 33%. For the same compound, the nuclear size entry in experiment [2] (setting [4]) is given as “decreasing a senescence-associated increase in nuclear size”. Moreover, the “IR-associated increase in nuclear size” value in experiment [2] (HDFs, treatment 5 h prior to IR) is “mitigating IR-associated increase in nuclear size”. Besides, in experiment [3] (setting [4]), the “functional mitophagy (mitophagy events)” value is “restoring functional mitophagy”. Further, in experiment [3] (HDFs with p62 knockdown), the “rescue of suppressed basal mitophagy in the absence of p62” value is recorded as “unable to rescue the suppression of basal mitophagy”. Moreover, the “IR-associated decrease in mitophagy” value in experiment [3] (HDFs, 30 μM for 5 h prior to 20 Gy IR) is “preventing IR-associated decrease in mitophagy”.
